The IC50 is the point on the concentration scale where inhibition reaches its midpoint. One may read the EC50 as the concentration that produces a half-maximal response.

Chain of HIF-2α HIS TAG-PASB Domain (Q99814 whole entry, looked up, the tested form may be a part): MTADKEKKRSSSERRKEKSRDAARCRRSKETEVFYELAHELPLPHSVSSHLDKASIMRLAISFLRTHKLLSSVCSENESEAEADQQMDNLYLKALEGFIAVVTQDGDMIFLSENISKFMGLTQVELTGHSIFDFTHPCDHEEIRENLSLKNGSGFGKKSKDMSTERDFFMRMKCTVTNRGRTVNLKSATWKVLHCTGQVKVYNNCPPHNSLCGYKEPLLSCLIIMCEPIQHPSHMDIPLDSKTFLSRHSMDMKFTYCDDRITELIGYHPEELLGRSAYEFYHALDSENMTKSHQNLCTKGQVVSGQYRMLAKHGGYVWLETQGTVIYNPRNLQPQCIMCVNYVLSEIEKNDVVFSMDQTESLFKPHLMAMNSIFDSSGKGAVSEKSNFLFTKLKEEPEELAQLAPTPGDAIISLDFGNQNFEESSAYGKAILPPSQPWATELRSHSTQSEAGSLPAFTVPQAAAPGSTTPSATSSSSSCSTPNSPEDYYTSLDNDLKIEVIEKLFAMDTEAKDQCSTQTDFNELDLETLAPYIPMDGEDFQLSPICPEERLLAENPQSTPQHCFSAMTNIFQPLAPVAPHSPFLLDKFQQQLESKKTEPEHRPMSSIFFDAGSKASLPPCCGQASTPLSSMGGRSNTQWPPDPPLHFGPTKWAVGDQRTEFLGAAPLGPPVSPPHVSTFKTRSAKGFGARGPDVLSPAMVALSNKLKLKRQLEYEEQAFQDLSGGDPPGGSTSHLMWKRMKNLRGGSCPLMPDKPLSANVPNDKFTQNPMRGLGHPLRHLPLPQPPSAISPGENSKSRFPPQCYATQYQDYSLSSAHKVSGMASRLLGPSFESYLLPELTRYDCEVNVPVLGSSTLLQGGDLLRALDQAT

One assay has as its target HIF-2α HIS TAG-PASB Domain (Homo sapiens, UniProt Q99814). Briefly: biochemical. The format is binding.
Details: not given
The text has this:
The term “scintillation proximity assay” (SPA) refers to a homogenous assay in which light is emitted when a radiolabeled ligand is brought into close proximity to a radiosensitive bead. The assay typically contains a target protein that contains a tag (e.g., His Tag, Glutathione S-transferase Tag). The tag on the protein is used to bind the target protein to the scintillation bead. Radiolabeled ligand (e.g., labeled with tritium) that binds to the protein is now in close proximity to the bead, and when the raidolabel (e.g., tritium) decays, the high energy particle hits the bead resulting in the emission of light that is detected by a detector, such as photomultiplier tube or CCD camera. When unlabeled ligands or compounds that bind to the protein are used in the assay, they displace the radiolabeled ligand, resulting in loss of signal.
The total assay volume was about 100 μL in the following configuration: 2-μL compound in DMSO, 88 μL buffer with protein and probe and 10 μL of SPA beads. […] To each compound, 88 μL of the buffer solution was then added. […] The percent inhibition was determined and IC50 values were calculated using the Dotmatics system based on the following equation: % inhibition=[(high control−sample)/(high control−low control)]×100.
For `COc1cc(F)cc(Oc2ccc3c(c2C#N)[C@@H](O)C(F)(F)S3(=O)=O)c1` [Compound 81, (R)-2,2-difluoro-5-(3-fluoro-5-methoxyphenoxy)-3-hydroxy-2,3-dihydrobenzo[b]thiophene-4-carbonitrile 1,1-dioxide], the midpoint of inhibition, the IC50, lay at 67 nM.

Still in this assay, the particulars now being: displacement of Compound 120 probe; mean; read-out: Mean SPA IC50.
For the molecule `N#Cc1cc(F)cc(Oc2ccc3c(c2C(F)F)C(=N)C(F)S3(=O)=O)c1` (stereo not drawn) [Compound 27, 3-((4-(difluoromethyl)-2-fluoro-3-imino-1,1-dioxido-2,3-dihydrobenzo[b]thiophen-5-yl)oxy)-5-fluorobenzonitrile], the IC50 was 5840 nM.

`O=S1(=O)c2ccc(OC3CCOCC3)c(C(F)F)c2C(O)C1(F)F` (stereo not drawn) [Compound 54, 4-(Difluoromethyl)-2,2-difluoro-3-hydroxy-5-((tetrahydro-2H-pyran-4-yl)oxy)-2,3-dihydrobenzo[b]thiophene 1,1-dioxide]: the IC50 was 1920 nM.

Turning to `N#CN=S1(=O)c2ccc(Oc3cc(F)cc(F)c3)c(Cl)c2[C@@H](O)C1(F)F` (stereo partly drawn) [Compound 66, N-((3R)-4-Chloro-5-(3,5-difluorophenoxy)-2,2-difluoro-3-hydroxy-1-oxido-2,3-dihydro-1λ^4-benzo[b]thiophen-1-ylidene)cyanamide], the IC50 amounted to 170 nM. As to `O=S1(=O)c2ccc(Oc3cncc(Cl)c3)c(Br)c2[C@@H](O)C1(F)F` [Compound 75, (R)-4-bromo-5-((5-chloropyridin-3-yl)oxy)-2,2-difluoro-3-hydroxy-2,3-dihydrobenzo[b]thiophene 1,1-dioxide], the IC50 amounted to 120 nM. For the molecule `O=S1(=O)c2ccc(Oc3cncc(F)c3)c(Br)c2[C@@H](O)C1(F)F` [Compound 77, (R)-4-bromo-2,2-difluoro-5-((5-fluoropyridin-3-yl)oxy)-3-hydroxy-2,3-dihydrobenzo[b]thiophene 1,1-dioxide], the IC50 was found to be 310 nM.

For `Cc1cncc(Oc2ccc3c(c2Br)[C@@H](O)C(F)(F)S3(=O)=O)c1` [Compound 82, (R)-4-bromo-2,2-difluoro-3-hydroxy-5-((5-methylpyridin-3-yl)oxy)-2,3-dihydrobenzo[b]thiophene 1,1-dioxide], the IC50 worked out at 2930 nM. Take `O=S1(=O)c2ccc(Oc3cncc(Cl)c3)c(Cl)c2[C@@H](O)C1(F)F` [Compound 86, (R)-4-Chloro-5-((5-chloropyridin-3-yl)oxy)-2,2-difluoro-3-hydroxy-2,3-dihydrobenzo[b]thiophene 1,1-dioxide]: the IC50 was found to be 380 nM. In the case of `N#Cc1c(Oc2cc(F)cc(F)c2)ccc2c1C(O)(C(F)(F)F)CS2(=O)=O` (stereo not drawn) [Compound 102, 5-(3,5-Difluorophenoxy)-3-hydroxy-3-(trifluoromethyl)-2,3-dihydrobenzo[b]thiophene-4-carbonitrile 1,1-dioxide], the IC50 turned out to be 4600 nM. Turning to `N#Cc1cc(F)cc(Oc2ccc3c(c2C#N)C(O)(C(F)(F)F)CS3(=O)=O)c1` (stereo not drawn) [Compound 104, 5-(3-Cyano-5-fluorophenoxy)-3-hydroxy-3-(trifluoromethyl)-2,3-dihydrobenzo[b]thiophene-4-carbonitrile 1,1-dioxide], the IC50 came to 6300 nM. As for `CC1(O)c2c(ccc(OCc3ccccc3)c2C#N)S(=O)(=O)C1(F)F` (stereo not drawn) [Compound 113, 5-(Benzyloxy)-2,2-difluoro-3-hydroxy-3-methyl-2,3-dihydrobenzo[b]thiophene-4-carbonitrile 1,1-dioxide], the IC50 is 16700 nM. Regarding `C=CC1(O)c2c(ccc(Oc3cc(F)cc(C#N)c3)c2C#N)S(=O)(=O)C1(F)F` (stereo not drawn) [Compound 114, 5-(3-Cyano-5-fluorophenoxy)-2,2-difluoro-3-hydroxy-3-vinyl-2,3-dihydrobenzo[b]thiophene-4-carbonitrile 1,1-dioxide], the IC50 was above 100000 nM. As for `CC1(O)c2c(ccc(OC3CC(F)(F)C3)c2C#N)S(=O)(=O)C1(F)F` (stereo not drawn) [Compound 115, 5-(3,3-Difluorocyclobutoxy)-2,2-difluoro-3-hydroxy-3-methyl-2,3-dihydrobenzo[b]thiophene-4-carbonitrile 1,1-dioxide], the half-maximal inhibitory concentration (IC50) was determined as 6700 nM.

Staying with this assay, now noted: unnumbered compounds listed by structure and name; read-out: IC50 value in SPA.
For `N=S1(=O)CC(O)c2c1ccc(Oc1cc(F)cc(F)c1)c2Br` (stereo not drawn) [[4-bromo-5-(3,5-difluorophenoxy)-3-hydroxy-1-imino-2,3-dihydro-1λ^4-benzo[b]thiophene 1-oxide], the IC50 is above 100000 nM.

`N#CN=S1(=O)C[C@H](O)c2c1ccc(Oc1cc(F)cc(F)c1)c2Cl` (stereo partly drawn) [[(3R)-4-chloro-5-(3,5-difluorophenoxy)-3-hydroxy-1-oxo-2,3-dihydrobenzothiophen-1-ylidene]cyanamide]: the IC50 is 25000 to 100000 nM.

For another assay, the system named is 786-O-Hif-Luc cells. Description: Luciferase Assay (HIF responsive element reporter). The conditions noted are these: 786-O-Hif-Luc cells, about 24 hours; read-out: Mean Luciferease EC50. In kind it is cell-based. The procedure: A pool of infected cells were then selected against 2 μg/mL of puromycin (P8833, Sigma) for 10 days followed by limited dilution to select single clones.
Each concentration was tested in triplicate. After about 24 hours, luciferase activity was determined using ONE-Glo Luciferase Assay Reagent (E6110, Promega) following the manufacturer's recommended procedure. EC50 were calculated by using Dotmatics software.
Consider `O=S1(=O)c2ccc(Oc3cc(F)cc(Cl)c3)c(C(F)F)c2C(O)C1(F)F` (stereo not drawn) [Compound 18, 5-(3-Chloro-5-fluorophenoxy)-4-(difluoromethyl)-2,2-difluoro-3-hydroxy-2,3-dihydrobenzo[b]thiophene 1,1-dioxide], for which the EC50 is 17 nM.

Regarding `N#Cc1cc(F)cc(Oc2ccc3c(c2C(F)F)C(O)C(F)(F)S3(=O)=O)c1` (stereo not drawn) [Compound 29, 3-((4-(Difluoromethyl)-2,2-difluoro-3-hydroxy-1,1-dioxido-2,3-dihydrobenzo[b]thiophen-5-yl)oxy)-5-fluorobenzonitrile], the EC50 worked out at 4 nM. The same measure, in the same setting: the result for `N=S1(=O)c2ccc(Oc3cc(F)cc(F)c3)c(Br)c2C(O)C1(F)F` (stereo not drawn) [Compound 32, 4-bromo-5-(3,5-difluorophenoxy)-2,2-difluoro-3-hydroxy-1-imino-2,3-dihydro-1H-1λ^4-benzo[b]thiophene 1-oxide] reads 290 nM; that for `[2H]C1(O)c2c(ccc(Oc3cc(F)cc(C#N)c3)c2C(F)F)S(=O)(=O)C1(F)F` (stereo not drawn) [Compound 40, 3-((4-(Difluoromethyl)-2,2-difluoro-3-hydroxy-1,1-dioxido-2,3-dihydrobenzo[b]thiophen-5-yl-3-d)oxy)-5-fluorobenzonitrile], 12 nM. The same measure, in the same setting: next, `N#Cc1cc(F)cc(Oc2ccc3c(c2C(F)F)[C@@H](N)C(F)(F)S3(=O)=O)c1` [Compound 41, (R)-3-((3-Amino-4-(difluoromethyl)-2,2-difluoro-1,1-dioxido-2,3-dihydrobenzo[b]thiophen-5-yl)oxy)-5-fluorobenzonitrile]: 140 nM.

The same assay, now with this note: 24 h, 786-O-Hif-Luc cells, about 24 hours; read-out: Mean Luciferease EC50.
Turning to `O=S1(=O)CC(O)c2c1ccc(Oc1cc(F)cc(Cl)c1)c2C(F)F` (stereo not drawn) [Compound 15, 5-(3-Chloro-5-fluorophenoxy)-4-(difluoromethyl)-3-hydroxy-2,3-dihydrobenzo[b]thiophene 1,1-dioxide], the EC50 amounted to 730 nM. For the molecule `O=S1(=O)CC(O)c2c1ccc(Oc1cc(F)cc(F)c1)c2C(F)F` (stereo not drawn) [Compound 24, 4-(Difluoromethyl)-5-(3,5-difluorophenoxy)-3-hydroxy-2,3-dihydrobenzo[b]thiophene 1,1-dioxide], the EC50 was 720 nM. `N#Cc1c(Oc2cc(F)cc(F)c2)ccc2c1C(O)C(F)S2(=O)=O` (stereo not drawn) [Compound 44, 5-(3,5-Difluorophenoxy)-2-fluoro-3-hydroxy-2,3-dihydrobenzo[b]thiophene-4-carbonitrile 1,1-dioxide]: the concentration for a half-maximal effect (EC50) came to 790 nM. For `COc1cc(F)cc(Oc2ccc3c(c2Br)[C@@H](O)C(F)(F)S3(=O)=O)c1` [Compound 80, (R)-4-Bromo-2,2-difluoro-5-(3-fluoro-5-methoxyphenoxy)-3-hydroxy-2,3-dihydrobenzo[b]thiophene 1,1-dioxide], the 50% effective concentration (EC50) is 410 nM.

Turning to `N#Cc1cccc(Oc2ccc3c(c2Br)[C@@H](O)C(F)(F)S3(=O)=O)c1` [Compound 84, (R)-3-((4-bromo-2,2-difluoro-3-hydroxy-1,1-dioxido-2,3-dihydrobenzo[b]thiophen-5-yl)oxy)benzonitrile], the EC50 worked out at 33 nM. As for `N#Cc1cc(F)cc(Oc2ccc3c(c2F)C(O)C(F)(F)S3(=O)=O)c1` (stereo not drawn) [Compound 88, 3-Fluoro-5-((2,2,4-trifluoro-3-hydroxy-1,1-dioxido-2,3-dihydrobenzo[b]thiophen-5-yl)oxy)benzonitrile], the EC50 turned out to be 880 nM.

Regarding `N#Cc1cc(Oc2ccc3c(c2C(F)F)[C@@H](O)C(F)(F)S3(=O)=O)ccc1F` [Compound 91, (R)-5-((4-(Difluoromethyl)-2,2-difluoro-3-hydroxy-1,1-dioxido-2,3-dihydrobenzo[b]thiophen-5-yl)oxy)-2-fluorobenzonitrile], the EC50 amounted to 310 nM. `O=S1(=O)c2ccc(Oc3cccc4cn[nH]c34)c(C(F)F)c2C(O)C1(F)F` (stereo not drawn) [Compound 95, 5-((1H-Indazol-7-yl)oxy)-4-(difluoromethyl)-2,2-difluoro-3-hydroxy-2,3-dihydrobenzo[b]thiophene 1,1-dioxide]: the EC50 amounted to 6890 nM.

The assay is the same for the next values; noted with them: 24 h, read-out: Mean Luciferease EC50.
For the molecule `O=S1(=O)CC(O)c2c1ccc(Oc1cc(F)cc(Cl)c1)c2Br` (stereo not drawn) [Compound 6, 4-Bromo-5-(3-chloro-5-fluorophenoxy)-3-hydroxy-2,3-dihydrobenzo[b]thiophene 1,1-dioxide], the EC50 came out at 4850 nM.

Regarding `N#Cc1cc(F)cc(Oc2ccc3c(c2C(F)F)[C@H](O)C(F)(F)S3(=O)=O)c1` [Compound 34, (S)-3-((4-(Difluoromethyl)-2,2-difluoro-3-hydroxy-1,1-dioxido-2,3-dihydrobenzo[b]thiophen-5-yl)oxy)-5-fluorobenzonitrile], the EC50 stood at 20 nM.

The record behind these values is patent publication US9884843B2 (Peloton Therapeutics, Inc., priority 2013, dated 2018).
